Assay results reported in patent US11566028B2, “Bicyclic heterocycles as FGFR inhibitors” (Incyte Corporation, priority 2019, dated 2023).
pIC50: −log10 of the molar value. Read-outs that look alike come from different tables or passages of the source.

Key:
Assay type in all cases: biochemical
FGFR1 = FGFR1 (Homo sapiens (Human), UniProt P11362); assay: FGFR Enzymatic Assay (FRET peptide phosphorylation), FGFR1; conditions: pre-incubated for 4 hours
FGFR2 = FGFR2 (Homo sapiens (Human), UniProt P21802); assay: FGFR Enzymatic Assay (FRET peptide phosphorylation), FGFR2
FGFR4 = FGFR4 (Homo sapiens (Human), UniProt P22455); assay: FGFR Enzymatic Assay (FRET peptide phosphorylation), FGFR4; conditions: pre-incubated for 4 hours
[1] = molecular target: wild-type un-phosphorylated FGFR3 protein (Homo sapiens (Human), UniProt P22607); assay: FGFR Enzymatic Assay (FRET peptide phosphorylation), FGFR3; conditions: pre-incubated for 4 hours
Chain of wild-type un-phosphorylated FGFR3 protein (P22607 23-806): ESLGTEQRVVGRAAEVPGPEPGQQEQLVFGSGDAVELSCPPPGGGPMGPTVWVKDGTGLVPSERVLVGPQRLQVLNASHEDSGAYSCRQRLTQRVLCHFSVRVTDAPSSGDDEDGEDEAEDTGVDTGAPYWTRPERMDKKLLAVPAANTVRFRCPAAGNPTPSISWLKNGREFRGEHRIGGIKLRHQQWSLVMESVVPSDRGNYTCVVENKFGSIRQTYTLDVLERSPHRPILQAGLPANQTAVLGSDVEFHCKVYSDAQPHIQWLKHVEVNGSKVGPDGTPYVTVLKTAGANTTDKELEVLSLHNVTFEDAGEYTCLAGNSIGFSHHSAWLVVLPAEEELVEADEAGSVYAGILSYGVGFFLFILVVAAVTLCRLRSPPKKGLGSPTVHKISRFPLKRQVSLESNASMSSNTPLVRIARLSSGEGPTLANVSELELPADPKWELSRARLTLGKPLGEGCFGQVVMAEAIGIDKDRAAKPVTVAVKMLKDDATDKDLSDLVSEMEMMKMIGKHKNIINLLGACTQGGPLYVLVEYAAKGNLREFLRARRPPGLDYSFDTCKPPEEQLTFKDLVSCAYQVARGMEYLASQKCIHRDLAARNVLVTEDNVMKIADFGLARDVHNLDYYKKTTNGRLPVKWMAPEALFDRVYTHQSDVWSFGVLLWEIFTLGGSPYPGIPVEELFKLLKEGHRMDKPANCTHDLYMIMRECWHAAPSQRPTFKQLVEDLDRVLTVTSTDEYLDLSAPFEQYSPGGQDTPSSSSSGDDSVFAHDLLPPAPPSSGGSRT

Chain of FGFR1 (P11362 22-822): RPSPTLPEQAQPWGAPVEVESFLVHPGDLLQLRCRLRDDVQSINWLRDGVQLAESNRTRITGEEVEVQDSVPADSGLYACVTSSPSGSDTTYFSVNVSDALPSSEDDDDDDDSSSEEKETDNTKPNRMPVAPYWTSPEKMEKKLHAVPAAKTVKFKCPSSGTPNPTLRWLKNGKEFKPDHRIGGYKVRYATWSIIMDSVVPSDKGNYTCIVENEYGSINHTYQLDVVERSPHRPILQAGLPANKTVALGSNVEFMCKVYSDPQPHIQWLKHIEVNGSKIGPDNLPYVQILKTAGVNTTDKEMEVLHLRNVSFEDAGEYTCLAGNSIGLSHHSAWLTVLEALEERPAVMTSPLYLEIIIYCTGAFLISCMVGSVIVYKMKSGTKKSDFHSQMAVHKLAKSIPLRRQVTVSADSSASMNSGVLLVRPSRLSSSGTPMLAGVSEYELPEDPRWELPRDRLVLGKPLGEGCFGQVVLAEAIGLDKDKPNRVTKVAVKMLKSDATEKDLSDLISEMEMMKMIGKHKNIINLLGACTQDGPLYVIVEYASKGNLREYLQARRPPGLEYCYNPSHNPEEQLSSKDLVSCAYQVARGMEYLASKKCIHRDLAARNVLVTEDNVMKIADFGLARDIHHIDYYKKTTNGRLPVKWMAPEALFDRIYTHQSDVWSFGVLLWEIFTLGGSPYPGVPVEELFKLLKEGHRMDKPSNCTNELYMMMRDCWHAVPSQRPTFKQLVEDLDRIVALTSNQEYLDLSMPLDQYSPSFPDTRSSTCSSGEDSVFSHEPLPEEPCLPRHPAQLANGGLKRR
Chain of FGFR4 (P22455 22-802): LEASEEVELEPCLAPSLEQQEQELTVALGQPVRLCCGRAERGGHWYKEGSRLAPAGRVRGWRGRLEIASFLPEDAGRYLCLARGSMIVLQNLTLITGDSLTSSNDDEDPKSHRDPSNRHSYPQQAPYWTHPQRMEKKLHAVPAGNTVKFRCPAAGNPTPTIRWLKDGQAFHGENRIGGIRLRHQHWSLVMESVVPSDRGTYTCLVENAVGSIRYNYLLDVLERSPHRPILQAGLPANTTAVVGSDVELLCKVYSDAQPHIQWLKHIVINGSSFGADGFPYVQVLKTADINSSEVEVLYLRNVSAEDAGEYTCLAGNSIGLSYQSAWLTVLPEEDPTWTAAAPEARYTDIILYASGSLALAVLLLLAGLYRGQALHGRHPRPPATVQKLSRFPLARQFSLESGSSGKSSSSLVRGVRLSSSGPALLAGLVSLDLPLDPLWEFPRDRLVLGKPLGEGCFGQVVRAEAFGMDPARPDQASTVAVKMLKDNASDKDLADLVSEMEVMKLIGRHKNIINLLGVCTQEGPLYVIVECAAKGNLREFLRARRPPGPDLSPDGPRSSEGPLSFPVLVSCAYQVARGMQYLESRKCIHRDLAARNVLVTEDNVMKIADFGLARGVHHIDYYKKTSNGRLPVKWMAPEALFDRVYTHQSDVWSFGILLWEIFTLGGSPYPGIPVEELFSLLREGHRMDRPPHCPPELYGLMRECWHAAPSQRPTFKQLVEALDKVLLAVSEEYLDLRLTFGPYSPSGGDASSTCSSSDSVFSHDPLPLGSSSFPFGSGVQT
Chain of FGFR2 (P21802 22-821): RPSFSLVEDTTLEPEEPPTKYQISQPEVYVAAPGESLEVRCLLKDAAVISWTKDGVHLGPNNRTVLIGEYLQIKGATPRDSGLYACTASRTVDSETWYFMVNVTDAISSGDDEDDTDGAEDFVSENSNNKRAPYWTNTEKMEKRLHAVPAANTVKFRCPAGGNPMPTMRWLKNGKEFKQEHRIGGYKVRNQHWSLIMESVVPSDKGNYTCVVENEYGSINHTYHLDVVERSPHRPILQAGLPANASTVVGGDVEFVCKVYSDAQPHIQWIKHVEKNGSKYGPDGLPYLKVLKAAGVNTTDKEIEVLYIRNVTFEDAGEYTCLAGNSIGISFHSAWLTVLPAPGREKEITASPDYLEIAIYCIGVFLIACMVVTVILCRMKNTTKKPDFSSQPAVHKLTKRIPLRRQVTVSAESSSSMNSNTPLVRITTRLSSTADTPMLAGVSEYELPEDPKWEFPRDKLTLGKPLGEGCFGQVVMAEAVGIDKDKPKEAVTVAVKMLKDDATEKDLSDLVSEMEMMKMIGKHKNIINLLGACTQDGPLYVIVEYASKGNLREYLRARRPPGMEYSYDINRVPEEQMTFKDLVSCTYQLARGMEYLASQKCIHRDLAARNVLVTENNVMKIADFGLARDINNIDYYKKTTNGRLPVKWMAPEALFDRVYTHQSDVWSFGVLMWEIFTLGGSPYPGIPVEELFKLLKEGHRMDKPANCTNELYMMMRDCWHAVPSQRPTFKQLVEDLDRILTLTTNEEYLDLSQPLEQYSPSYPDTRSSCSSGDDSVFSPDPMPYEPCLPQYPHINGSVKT

| Structure (SMILES) | pIC50 (FGFR1) | pIC50 (FGFR2; pre-incubated for 4 hours) | pIC50 (FGFR4) | pIC50 [1] | pIC50 (FGFR2) |
| --- | --- | --- | --- | --- | --- |
| CCS(=O)(=O)c1cc(F)c(F)c(-c2cnn3cc(-c4cnn(C)c4)c(O[C@H]4CCOC4)nc23)c1 [Example 46, (S)-3-(5-(Ethylsulfonyl)-2,3-difluorophenyl)-6-(1-methyl-1H-pyrazol-4-yl)-5-((tetrahydrofuran-3-yl)oxy)pyrazolo[1,5-a]pyrimidine] | 7.52 to 8.00 | > 8.00 | ≤ 6.70 | – | – |
| [2H]C([2H])([2H])NC(=O)c1cncc(-c2cnn3cc(-c4cnn(C(C)C)c4)c(O[C@H]4CCOC4)nc23)c1 [Example 63, (S)-5-(6-(1-Isopropyl-1H-pyrazol-4-yl)-5-((tetrahydrofuran-3-yl)oxy)pyrazolo[1,5-a]pyrimidin-3-yl)-N-(methyl-d3)nicotinamide] | – | – | 6.70 to 7.52 | – | – |
| CNC(=O)c1cc(C)c(F)c(-c2cnn3cc(-c4cnn(C5CCS(=O)(=O)C5)c4)c(N[C@H]4CCOC4)nc23)c1 (stereo partly drawn) [Example 38, 3-(6-(1-(1,1-Dioxidotetrahydrothiophen-3-y1)-1H-pyrazol-4-y1)-5-(((S)-tetrahydrofuran-3-yl)amino)pyrazolo[1,5-a]pyrimidin-3-y1)-4-fluoro-N,5-dimethylbenzamide] | 6.70 to 7.52 | – | – | > 8.00 | > 8.00 |
| CNC(=O)c1cc(C)c(F)c(-c2cnn3cc(-c4cnn(CCC#N)c4)c(N[C@H]4CCOC4)nc23)c1 [Example 37, (S)-3-(6-(1-(2-Cyanoethyl)-1H-pyrazol-4-y1)-5-((tetrahydrofuran-3-yl)amino)pyrazolo[1,5-a]pyrimidin-3-y1)-4-fluoro-N,5-dimethylbenzamide] | 7.52 to 8.00 | – | – | > 8.00 | > 8.00 |
| CNC(=O)c1cc(C#N)cc(-c2cnn3cc(-c4cnn(C)c4)c(O[C@H]4CCOC4)nc23)c1 [Example 6, (S)-3-Cyano-N-methyl-5-(6-(1-methyl-1H-pyrazol-4-yl)-5-((tetrahydrofuran-3-yl)oxy)pyrazolo[1,5-a]pyrimidin-3-yl)benzamide] | 7.52 to 8.00 | > 8.00 | – | > 8.00 | – |
| CNC(=O)c1cc(F)c(F)c(-c2cnn3cc(-c4ccn(C(C)C)c(=O)c4)c(N[C@H]4CCOC4)nc23)c1 [Example 56, (S)-3,4-Difluoro-5-(6-(1-isopropyl-2-oxo-1,2-dihydropyridin-4-y1)-5-((tetrahydrofuran-3-yl)amino)pyrazolo[1,5-a]pyrimidin-3-y1)-N-methylbenzamide] | 7.52 to 8.00 | – | – | > 8.00 | > 8.00 |
| CNC(=O)c1cc(F)c(F)c(-c2cnn3cc(-c4ccc(N5CCN(C)CC5)cc4)c(O[C@H]4CCOC4)nc23)c1 [Example 12, (S)-3,4-Difluoro-N-methy1-5-(6-(4-(4-methylpiperazin-1-yl)pheny1)-5-((tetrahydrofuran-3-yl)oxy)pyrazolo[1,5-a]pyrimidin-3-yl)benzamide] | > 8.00 | – | – | > 8.00 | > 8.00 |
| CNC(=O)c1cncc(-c2cnn3cc(-c4cnn(C)c4)c(OC4CCOC4)nc23)c1 (racemic) [Example 3, N-Methyl-5-(6-(1-methyl-1H-pyrazol-4-yl)-5-((tetrahydrofuran-3-yl)oxy)pyrazolo[1,5-a]pyrimidin-3-yl)nicotinamide] | 6.70 to 7.52 | > 8.00 | ≤ 6.70 | – | – |
| CNC(=O)c1cncc(-c2cnn3cc(-c4ccc(N5CCOCC5)nc4)c(O[C@H]4CCOC4)nc23)c1 [Example 20, (S)-N-Methyl-5-(6-(6-morpholinopyridin-3-yl)-5-((tetrahydrofuran-3-yl)oxy)pyrazolo[1,5-a]pyrimidin-3-yl)nicotinamide] | 6.70 to 7.52 | > 8.00 | – | > 8.00 | – |
| CNC(=O)c1cc(-c2cnn3cc(-c4ccc(C(C)(C)O)nc4)c(O[C@H]4CCOC4)nc23)c(F)c(C(F)F)c1 [Example 25, (S)-3-(Difluoromethyl)-4-fluoro-5-(6-(6-(2-hydroxypropan-2-yl)pyridin-3-yl)-5-((tetrahydrofuran-3-yl)oxy)pyrazolo[1,5-a]pyrimidin-3-yl)-N-methylbenzamide] | 6.70 to 7.52 | > 8.00 | – | > 8.00 | – |
| CNC(=O)c1cncc(-c2cnn3cc(-c4ccc(N5CCN(C)CC5)cc4)c(O[C@H]4CCOC4)nc23)c1 [Example 18, (S)—N-Methyl-5-(6-(4-(4-methylpiperazin-1-yl)phenyl)-5-((tetrahydrofuran-3-yl)oxy)pyrazolo[1,5-a]pyrimidin-3-yl)nicotinamide] | 6.70 to 7.52 | > 8.00 | – | > 8.00 | – |
| CCS(=O)(=O)c1cc(F)c(F)c(-c2cnn3cc(-c4cnn(C)c4)c(N[C@H]4CCOC4)nc23)c1 [Example 45, (S)-3-(5-(Ethylsulfonyl)-2,3-difluorophenyl)-6-(1-methyl-1H-pyrazol-4-yl)-N-(tetrahydrofuran-3-yl)pyrazolo[1,5-a]pyrimidin-5-amine] | 7.52 to 8.00 | – | ≤ 6.70 | – | – |
| CNC(=O)c1cncc(-c2cnn3cc(-c4cnn(C5CCC5)c4)c(O[C@H]4CCOC4)nc23)c1 [Example 22, (S)-5-(6-(1-Cyclobutyl-1H-pyrazol-4-yl)-5-((tetrahydrofuran-3-yl)oxy)pyrazolo[1,5-a]pyrimidin-3-yl)-N-methylnicotinamide] | 7.52 to 8.00 | > 8.00 | – | > 8.00 | – |
| CNC(=O)c1cc(F)c(F)c(-c2cnn3cc(-c4ccc(N5CCN(C)CC5)nc4)c(O[C@H]4CCOC4)nc23)c1 [Example 13, (S)-3,4-Difluoro-N-methy1-5-(6-(6-(4-methylpiperazin-1-yl)pyridin-3-y1)-5-((tetrahydrofuran-3-yl)oxy)pyrazolo[1,5-a]pyrimidin-3-yl)benzamide] | 7.52 to 8.00 | > 8.00 | – | > 8.00 | – |

More lines, main results first:

| pIC50 (FGFR1) | pIC50 (FGFR2; pre-incubated for 4 hours) | pIC50 (FGFR4) | pIC50 [1] | Structure (SMILES) | pIC50 (FGFR2) |
| --- | --- | --- | --- | --- | --- |
| 7.52 to 8.00 | > 8.00 | – | > 8.00 | CCn1cc(-c2cn3ncc(-c4cc(C(=O)NC)cc(C(F)F)c4F)c3nc2N[C@H]2CCOC2)cn1 [Example 48, (S)-3-(Difluoromethyl)-5-(6-(1-ethyl-1H-pyrazol-4-yl)-5-((tetrahydrofuran-3-yl)amino)pyrazolo[1,5-a]pyrimidin-3-yl)-4-fluoro-N-methylbenzamide] | – |
| 6.70 to 7.52 | > 8.00 | – | > 8.00 | CNC(=O)c1cc(C)c(F)c(-c2cnn3cc(-c4cnn(C)c4)c(N[C@H]4CCOC4)nc23)c1 [Example 16, (S)-4-Fluoro-N,3-dimethyl-5-(6-(1-methyl-1H-pyrazol-4-yl)-5-((tetrahydrofuran-3-yl)amino)pyrazolo[1,5-a]pyrimidin-3-yl)benzamide] | – |
| 6.70 to 7.52 | > 8.00 | – | > 8.00 | [2H]C([2H])([2H])NC(=O)c1cc(C)c(F)c(-c2cnn3cc(-c4cnc(C5CCN(C(C)C)CC5)o4)c(N[C@H]4CCOC4)nc23)c1 [Example 68, (S)-4-Fluoro-3-(6-(2-(1-isopropylpiperidin-4-yl)oxazol-5-yl)-5-((tetrahydrofuran-3-yl)amino)pyrazolo[1,5-a]pyrimidin-3-yl)-5-methyl-N-(methyl-d3)benzamide] | – |
| > 8.00 | > 8.00 | – | > 8.00 | CNC(=O)c1cc(F)c(F)c(-c2cnn3cc(-c4cnn(C5CCN(C)CC5)c4)c(O[C@H]4CCOC4)nc23)c1 [Example 11, (S)-3,4-Difluoro-N-methyl-5-(6-(1-(1-methylpiperidin-4-yl)-1H-pyrazol-4-yl)-5-((tetrahydrofuran-3-yl)oxy)pyrazolo[1,5-a]pyrimidin-3-yl)benzamide] | – |
| 6.70 to 7.52 | > 8.00 | – | > 8.00 | CNC(=O)c1cc(C)c(F)c(-c2cnn3cc(-c4cnn(CCO)c4)c(N[C@H]4CCOC4)nc23)c1 [Example 36, (S)-4-Fluoro-3-(6-(1-(2-hydroxyethyl)-1H-pyrazol-4-yl)-5-((tetrahydrofuran-3-yl)amino)pyrazolo[1,5-a]pyrimidin-3-yl)-N,5-dimethylbenzamide] | – |
| 7.52 to 8.00 | > 8.00 | – | > 8.00 | CNC(=O)c1cc(O)c(F)c(-c2cnn3cc(-c4cnn(C)c4)c(O[C@H]4CCOC4)nc23)c1 [Example 31, (S)-4-Fluoro-3-hydroxy-N-methyl-5-(6-(1-methyl-1H-pyrazol-4-yl)-5-((tetrahydrofuran-3-yl)oxy)pyrazolo[1,5-a]pyrimidin-3-yl)benzamide] | – |
| 6.70 to 7.52 | > 8.00 | – | > 8.00 | CNC(=O)c1cc(C)c(F)c(-c2cnn3cc(-c4cnc(C5(F)CCN(C)CC5)o4)c(N[C@H]4CCOC4)nc23)c1 [Example 69, (S)-4-Fluoro-3-(6-(2-(4-fluoro-1-methylpiperidin-4-yl)oxazol-5-yl)-5-((tetrahydrofuran-3-yl)amino)pyrazolo[1,5-a]pyrimidin-3-yl)-N,5-dimethylbenzamide] | – |
| > 8.00 | > 8.00 | – | > 8.00 | [2H]C([2H])([2H])NC(=O)c1cc(C)c(F)c(-c2cnn3cc(-c4cnn(C5CCN(C(C)C)CC5)n4)c(N[C@H]4CCOC4)nc23)c1 [Example 67, (S)-4-Fluoro-3-(6-(2-(1-isopropylpiperidin-4-yl)-2H-1,2,3-triazol-4-yl)-5-((tetrahydrofuran-3-yl)amino)pyrazolo[1,5-a]pyrimidin-3-yl)-5-methyl-N-(methyl-d3)benzamide] | – |
| > 8.00 | > 8.00 | – | > 8.00 | CNC(=O)c1cc(-c2cnn3cc(-c4cnn(C5CN(C)C5)c4)c(O[C@H]4CCOC4)nc23)c(F)c(C(F)F)c1 [Example 26, (S)-3-(Difluoromethyl)-4-fluoro-N-methyl-5-(6-(1-(1-methylazetidin-3-yl)-1H-pyrazol-4-yl)-5-((tetrahydrofuran-3-yl)oxy)pyrazolo[1,5-a]pyrimidin-3-yl)benzamide] | – |
| 7.52 to 8.00 | > 8.00 | – | > 8.00 | CNC(=O)c1cc(-c2cnn3cc(-c4cnn(C)c4)c(N[C@H]4CCOC4)nc23)c(F)c(C(F)F)c1 [Example 47, (S)-3-(Difluoromethyl)-4-fluoro-N-methyl-5-(6-(1-methyl-1H-pyrazol-4-yl)-5-((tetrahydrofuran-3-yl)amino)pyrazolo[1,5-a]pyrimidin-3-yl)benzamide] | – |
